Measurements published in patent US20240308985A1 (Psy Therapeutics, Inc., priority 2021, published 2024).
pIC50: −log10 of the molar value.

Biological target: Monoacylglycerol Lipase (MAGL) (Homo sapiens (Human), UniProt Q99685)
Assay: MAGL inhibition potency (IC50) assay with 4NPA substrate
Type: biochemical
Settings: Method 1: Reaction Biology MAGL enzyme, 6 nM; read-out: MAGL Potency (Detection Method)
Source text: The potency of certain compounds for inhibiting MAGL were obtained using the following assays. The monoacylglycerol lipase inhibitor screening assay kit from Cayman Chemical was used to measure the MAGL potency for the compounds in Table 6 and Table 7. Cayman's Monoacylglycerol Lipase Inhibitor Screening Assay provides a method for screening human MAGL inhibitors. MAGL hydrolyzes 4-nitrophenylacetate resulting in a yellow product, 4-nitrophenol, with an absorbance of 405-412 nm. MAGL Inhibition was measured by the following assay. Monoacylglycerol Lipase (MAGL) inhibition was measured using recombinant MAGL enzyme (aa 2-303 RBC, internal preparation) and the substrate 4-Nitrophenyl acetate (4NPA) (Sigma-Aldrich, N8130). Hydrolysis of the substrate in the presence of the enzyme was measured by absorbance at 405 nm. 10 μL of assay buffer (10 mM Tris pH 7.5, 1 mM EDTA, 0.9% DMSO) was added to a black 384-well non-binding plate with clear bottom (Greiner, 781906) for each reaction. […] DMSO control wells were included for reference. A 10.8 nM (1.8×) MAGL mix in assay buffer was prepared, with 25 μL added to each reaction well, for a final assay concentration of 6 nM. No enzyme wells received 25 μL of buffer. Plate was incubated at room temperature for 30 minutes. 35 mM solution of 4NPA in methanol was prepared daily. A 4.5×4NPA substrate solution was prepared in assay buffer and 10 μL was added to each reaction well, for a final assay concentration of 0.25 mM. Plate was spun for 1 minute at 1000 rpm before measuring absorbance using a CLARIOstar plate reader (BMG Labtech). A kinetic reading at 405 nm was done every minute for 30 minutes. Data was analyzed using the linear slope of the reaction progress curve and the average of the no-enzyme wells (background) was subtracted from the data. The background-subtracted slope data was converted to % activity using the average of wells with enzyme and DMSO vehicle. IC50s were calculated using GraphPad software (Sigmoidal dose response, variable slope equation). […] Table 8 provides potency measurements of MAGL inhibition measured using the Potency Assay of Example 22 above, with the following modifications described in Table C. [table]

Chain of Monoacylglycerol Lipase (MAGL) (Q99685 2-303): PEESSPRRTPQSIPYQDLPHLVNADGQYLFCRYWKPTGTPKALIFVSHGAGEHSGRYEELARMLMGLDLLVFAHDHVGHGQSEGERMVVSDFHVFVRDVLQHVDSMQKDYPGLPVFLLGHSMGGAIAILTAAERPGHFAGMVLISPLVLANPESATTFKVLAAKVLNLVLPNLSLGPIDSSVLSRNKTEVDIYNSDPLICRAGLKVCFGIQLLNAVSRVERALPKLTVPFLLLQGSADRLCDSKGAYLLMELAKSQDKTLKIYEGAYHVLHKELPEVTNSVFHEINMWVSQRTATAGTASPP

Row | pIC50 | SMILES
1 | 6.82 to 7.30 | Cc1cc(C2CC3(C2)CN(C(=O)c2ccc(F)c(O)c2)C3)n(-c2ccccc2C)n1 [Compound 141, (4-fluoro-3-hydroxyphenyl)(6-(3-methyl-1-(o-tolyl)-1H-pyrazol-5-yl)-2-azaspiro[3.3]heptan-2-yl)methanone]

Same assay, conditions: Method 2: Cayman Chemical MAGL enzyme, 10 nM; read-out: MAGL Potency (Detection Method)

Row | SMILES | pIC50
2 | Cc1cc(C2=CC3(C2)CN(C(=O)c2cc(O)ccc2F)C3)n(-c2ccccc2C)n1 [Compound 120, (2-fluoro-5-hydroxyphenyl)(6-(3-methyl-1-(o-tolyl)-1H-pyrazol-5-yl)-2-azaspiro[3.3]hept-5-en-2-yl)methanone] | 6.30 to 6.82
3 | Cc1cc(C2CC3(C2)CN(C(=O)c2cc(O)ccc2Cl)C3)n(-c2ccccc2C)n1 [Compound 140, (2-chloro-5-hydroxyphenyl) (6-(3-methyl-1-(o-tolyl)-1H-pyrazol-5-yl)-2-azaspiro [3.3]heptan-2-yl) methanone] | 6.82 to 7.30
4 | Cc1cc(C2CC3(C2)CN(C(=O)c2ccc(F)c(O)c2)C3)n(-c2ccccc2C)n1 [Compound 141, (4-fluoro-3-hydroxyphenyl)(6-(3-methyl-1-(o-tolyl)-1H-pyrazol-5-yl)-2-azaspiro[3.3]heptan-2-yl)methanone] | 6.30 to 6.82
5 | COc1cc(F)ccc1C(=O)N1CC2(CC(c3cc(C)nn3-c3ccccc3C)C2)C1 [Compound 142, (4-fluoro-2-methoxyphenyl)(6-(3-methyl-1-(o-tolyl)-1H-pyrazol-5-yl)-2-azaspiro[3.3]heptan-2-yl)methanone] | 6.00 to 6.30
6 | COc1ccccc1C(=O)N1CC2(CC(c3cc(C)nn3-c3ccccc3C)C2)C1 [Compound 143, (2-methoxyphenyl)(6-(3-methyl-1-(o-tolyl)-1H-pyrazol-5-yl)-2-azaspiro[3.3]heptan-2-yl)methanone] | 5.29 to 6.00
7 | CCOc1ccccc1C(=O)N1CC2(CC(c3cc(C)nn3-c3ccccc3C)C2)C1 [Compound 145, (2-ethoxyphenyl)(6-(3-methyl-1-(o-tolyl)-1H-pyrazol-5-yl)-2-azaspiro[3.3]heptan-2-yl)methanone] | 5.29 to 6.00
8 | CCOc1cc(F)ccc1C(=O)N1CC2(CC(c3cc(C)nn3-c3ccccc3C)C2)C1 [Compound 146, (2-ethoxy-4-fluorophenyl){6-[3-methyl-1-(o-tolyl)-5-pyrazolyl]-2-aza-2-spiro[3.3]heptyl}methanone] | 6.30 to 6.82
9 | Cc1cc(C2CC3(C2)CN(C(=O)c2ccc(F)cc2OC(C)C)C3)n(-c2ccccc2C)n1 [Compound 177, (4-fluoro-2-isopropoxyphenyl)(6-(3-methyl-1-(o-tolyl)-1H-pyrazol-5-yl)-2-azaspiro[3.3]heptan-2-yl)methanone] | 6.82 to 7.30

Results, then the molecule that gave them:

Row | pIC50 | SMILES
10 | 5.29 to 6.00 | Cc1ccccc1NC(=O)C1CC2(C1)CN(C(=O)c1cc(O)ccc1F)C2 [Compound 186, N-o-tolyl-2-(2-fluoro-5-hydroxybenzoyl)-2-aza-6-spiro[3.3]heptanecarboxamide]
11 | 6.30 to 6.82 | CCOc1cc(F)ccc1C(=O)N1CC2(CC(C(=O)N(C)c3ccccc3C)C2)C1 [Compound 187, 2-(2-Ethoxy-4-fluorobenzoyl)-N-Methyl-N-(o-tolyl)-2-azaspiro [3.3] heptane-6-carboxamide]

Same assay, conditions: Method 2: Cayman Chemical MAGL enzyme, 10 nM; read-out: Potency (MAGL inhibition)

Row | SMILES | pIC50
12 | Cc1cc(C2CC3(C2)CN(C(=N)c2cc(O)ccc2F)C3)n(-c2ccccc2C)n1 [Compound 144] | < 5.00
13 | COc1cc(F)ccc1CN1CC2(CC(c3cc(C)nn3-c3ccccc3C)C2)C1 [Compound 149] | < 5.00
14 | Cc1cc(C2CC3(C2)CN(C2CCOc4ccccc42)C3)n(-c2ccccc2C)n1 (stereo not shown) [Compound 152] | < 5.00
15 | Cc1cc(C2CC3(C2)CN([C@@H]2CCOc4ccccc42)C3)n(-c2ccccc2C)n1 [Compound 153] | < 5.00
16 | Cc1cc(C2CC3(C2)CN([C@H]2COc4ccccc42)C3)n(-c2ccccc2C)n1 [Compound 154] | < 5.00
17 | Cc1cc(C2CC3(C2)CN([C@@H]2COc4ccccc42)C3)n(-c2ccccc2C)n1 [Compound 155] | < 5.00
18 | Cc1cc(C2CC3(C2)CN(C(=O)c2ccoc2)C3)n(-c2ccccc2C)n1 [Compound 179] | < 5.00

Now from value to molecule:

Row | pIC50 | SMILES
19 | < 5.00 | Cc1cc(C2CC3(C2)CN(C(=O)c2cccn2C)C3)n(-c2ccccc2C)n1 [Compound 181]
20 | < 5.00 | Cc1cc(C2CC3(C2)CN(C(=O)c2ccn(C)c2)C3)n(-c2ccccc2C)n1 [Compound 182]
21 | < 5.00 | Cc1cc(C2CC3(C2)CN(C(=O)c2ccc[nH]2)C3)n(-c2ccccc2C)n1 [Compound 183]
22 | < 5.00 | Cc1cc(C2CC3(C2)CN(C(=O)c2cc[nH]c2)C3)n(-c2ccccc2C)n1 [Compound 184]
23 | < 5.00 | CCOc1cc(F)ccc1C(=O)N1CC2(CC(C(=O)Nc3ccccc3C)C2)C1 [Compound 188]

Same assay, conditions: Method 3: Reaction Biology MAGL enzyme, 10 nM; read-out: MAGL Potency (Detection Method)

Row | pIC50 | SMILES
24 | > 7.30 | CCOc1cc(F)ccc1C(=O)N1CC2(CC(c3cc(C)nn3-c3ccccc3C)C2)C1 [Compound 146, (2-ethoxy-4-fluorophenyl){6-[3-methyl-1-(o-tolyl)-5-pyrazolyl]-2-aza-2-spiro[3.3]heptyl}methanone]

Same assay, conditions: Method 4: Cayman Chemical MAGL enzyme, 15 nM; read-out: MAGL Potency (Detection Method)

Row | pIC50 | SMILES
25 | 6.30 to 6.82 | CCOc1cc(F)ccc1C(=O)N1CC2(CC(C(=O)N(CC)c3ccccc3C)C2)C1 [Compound 203, N-ethyl-N-o-tolyl-2-(2-ethoxy-4-fluorobenzoyl)-2-aza-6-spiro[3.3]heptanecarboxamide]
26 | 6.00 to 6.30 | CCOc1cc(F)ccc1C(=O)N1CC2(CC(C(=O)N(C)c3ccccc3C(C)C)C2)C1 [Compound 205, N-o-cumenyl-N-methyl-2-(2-ethoxy-4-fluorobenzoyl)-2-aza-6-spiro[3.3]heptanccarboxamide]
27 | 5.29 to 6.00 | CCOc1cc(F)ccc1C(=O)N1CC2(CC(C(=O)N(C)c3ccccc3Cl)C2)C1 [Compound 206, N-o-chlorophenyl-N-methyl-2-(2-ethoxy-4-fluorobenzoyl)-2-aza-6-spiro[3.3]heptanecarboxamide]

Same assay, conditions: Method 4: Cayman Chemical MAGL enzyme, 15 nM; read-out: Potency (MAGL inhibition)

Row | pIC50 | SMILES
28 | < 5.00 | CCOc1cc(F)ccc1C(=O)N1CC2(CC(C(=O)N(C)c3cccnc3C)C2)C1 [Compound 198]

Same assay, conditions: Method 6: Reaction Biology MAGL enzyme, 6 nM; read-out: MAGL Potency (Detection Method)

Row | pIC50 | SMILES
29 | 6.82 to 7.30 | Cc1cnn(C2CC3(C2)CN(C(=O)c2cc(O)ccc2F)C3)c1-c1ccccc1C(F)(F)F (atropisomer, axis not shown; (M)) [Compound 410, 4-fluoro-3-{6-[(4M)-4-methyl-5-[2-(trifluoromethyl)phenyl]-1H-pyrazol-1-yl]-2-azaspiro[3.3]heptane-2-carbonyl}phenol]

Same assay, conditions: Method 14: Reaction Biology MAGL enzyme, 6 nM; read-out: MAGL Potency (Detection Method)

Row | pIC50 | SMILES
30 | > 7.30 | Cc1cc(C2CC3(C2)CN(C(=O)c2cc(O)ccc2F)C3)n(-c2cc(F)ccc2C)n1 [Compound 365, (2-fluoro-5-hydroxyphenyl){6-[1-(5-fluoro-2-tolyl)-3-methyl-5-pyrazolyl]-2-aza-2-spiro[3.3]heptyl}methanone]
31 | > 7.30 | Cc1cc(C2CC3(C2)CN(C(=O)c2cc(O)ccc2F)C3)n(-c2ccccc2C(F)(F)F)n1 [Compound 366, (2-fluoro-5-hydroxyphenyl)(6-{3-methyl-1-[o-(trifluoromethyl)phenyl]-5-pyrazolyl}-2-aza-2-spiro[3.3]heptyl)methanone]
32 | 6.00 to 6.30 | Cc1cc(C2CC3(C2)CN(C(=O)c2c(F)ccc(O)c2C)C3)n(-c2ccccc2C)n1 [Compound 370]
33 | 6.82 to 7.30 | Cc1cc(C2CC3(C2)CN(C(=O)c2cc(O)c(C)cc2F)C3)n(-c2ccccc2C)n1 [Compound 371, (2-fluoro-5-hydroxy-4-tolyl){6-[3-methyl-1-(o-tolyl)-5-pyrazolyl]-2-aza-2-spiro[3.3]heptyl}methanone]
34 | 6.30 to 6.82 | Cc1ccccc1-c1c(C)cnn1C1CC2(C1)CN(C(=O)c1cc(O)ccc1F)C2 [Compound 373, (2-fluoro-5-hydroxyphenyl){6-[4-methyl-5-(o-tolyl)-1-pyrazolyl]-2-aza-2-spiro[3.3]heptyl}methanone]

Same assay, conditions: Method 14: Reaction Biology MAGL enzyme, 6 nM; read-out: Potency (MAGL inhibition)

Row | pIC50 | SMILES
35 | < 5.00 | Cc1cc(C2CC3(C2)CN(C(=O)c2cc4c(cc2F)CCO4)C3)n(-c2ccccc2C)n1 [Compound 368]

Same assay, conditions: Methods 1, 2, 3; read-out: MAGL Potency (Detection Method)

Row | pIC50 | SMILES
36 | > 7.30 | Cc1cc(C2CC3(C2)CN(C(=O)c2cc(O)c(F)cc2F)C3)n(-c2ccccc2C)n1 [Compound 126, (2,4-difluoro-5-hydroxyphenyl)(6-(3-methyl-1-(o-tolyl)-1H-pyrazol-5-yl)-2-azaspiro[3.3]heptan-2-yl)methanone]

Same assay, conditions: Methods 1, 2; read-out: MAGL Potency (Detection Method)

Row | pIC50 | SMILES
37 | > 7.30 | Cc1cc(C2CC3(C2)CN(C(=O)c2cc(O)ccc2C#N)C3)n(-c2ccccc2C)n1 [Compound 128, 4-hydroxy-2-({6-[3-methyl-1-(o-tolyl)-5-pyrazolyl]-2-aza-2-spiro[3.3]heptyl}carbonyl)benzonitrile]

Same assay, conditions: Methods 2, 3; read-out: MAGL Potency (Detection Method)

Row | pIC50 | SMILES
38 | 6.82 to 7.30 | Cc1ccccc1N(C)C(=O)C1CC2(C1)CN(C(=O)c1cc(O)ccc1F)C2 [Compound 185, 2-(2-Fluoro-5-hydroxybenzoyl)-N-Methyl-N-(o-tolyl)-2-azaspiro [3.3]heptane-6-carboxamide]
39 | 5.29 to 6.00 | CCOc1cc(F)ccc1C(=O)N1CC2(CC(C(=O)N(C)c3ccccc3C)C2)C1 [Compound 187, 2-(2-Ethoxy-4-fluorobenzoyl)-N-Methyl-N-(o-tolyl)-2-azaspiro [3.3] heptane-6-carboxamide]

Same assay, conditions: read-out: Potency (MAGL inhibition)

Row | pIC50 | SMILES
40 | < 5.00 | Cc1cc(C2CC3(C2)CN(Cc2cc(O)ccc2F)C3)n(-c2ccccc2C)n1 [Compound 150]
